Experimental findings from patent publication US8288385B2, “6-(3-aza-bicyclo[3.1.0]hex-3-yl)-2-phenyl-pyrimidines” (Actelion Pharmaceuticals Ltd., priority 2009, dated 2012) are described below.

As a reminder, the IC50 is the concentration needed to halve the response being measured.

SMILES strings stand for the structures.

For this test, the target named is T1, human P2Y12 receptor (Homo sapiens, UniProt Q9H244).
T1 construct: expressed in transfected cells; host or cells: Chinese Hamster Ovary (CHO) cells
T1 sequence (Q9H244 whole entry): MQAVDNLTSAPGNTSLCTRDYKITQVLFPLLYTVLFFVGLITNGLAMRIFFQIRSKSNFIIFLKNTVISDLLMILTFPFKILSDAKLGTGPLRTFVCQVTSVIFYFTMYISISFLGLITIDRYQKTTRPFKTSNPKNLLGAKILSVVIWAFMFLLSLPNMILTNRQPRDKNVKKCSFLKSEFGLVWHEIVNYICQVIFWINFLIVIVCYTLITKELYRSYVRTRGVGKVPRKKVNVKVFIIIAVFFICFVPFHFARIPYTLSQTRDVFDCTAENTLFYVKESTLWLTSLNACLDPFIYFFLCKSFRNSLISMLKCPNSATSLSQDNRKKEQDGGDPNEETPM
As to the kind of experiment: P2Y12 receptor binding assay. Particulars: CHO cells with recombinant expression of the human P2Y12 receptor; tritium-labeled 2-methyl-S-ADP; RT, 2 hours. Here is the method:
P2Y12 Receptor Binding Assay
Chinese Hamster Ovary (CHO) cells with recombinant expression of the human P2Y12 receptor were cultured in 24 well cell-culture plates. Cells were washed three times with binding buffer (50 mM Tris pH 7.4, 100 mM NaCl, 1 mM EDTA, 0.5% BSA). The cells were then incubated with 0.5 ml per well binding buffer containing tritium-labeled 2-methyl-thio-adenosine 5′-diphosphate (2-methyl-S-ADP) (between 100,000 and 300,000 dpm per well) and various concentrations of test compounds. After incubation at RT for 2 hours, cells were washed three times with binding buffer. Then, cells were solubilized by addition of 0.5 ml solubilization buffer (SDS, NaOH, EDTA). The content of each well was then transferred into beta-counter vials and 2.0 ml of Ultima Gold Scintillation liquid was added.
Take `CCCCOC(=O)N1CCN(C(=O)[C@H](CCCC)NC(=O)c2cc(N3C[C@@H]4[C@H](C3)[C@@H]4C(=O)O)nc(-c3ccccc3)n2)CC1` [Example 38, (1α,5α,6β)-3-{6-[(S)-1-(4-Butoxycarbonyl-piperazine-1-carbonyl)-pentylcarbamoyl]-2-phenyl-pyrimidin-4-yl}-3-aza-bicyclo[3.1.0]hexane-6-carboxylic acid]: the IC50 came to 0.136 µM.
Consider `CCCCOC(=O)N1CCN(C(=O)CNC(=O)c2cc(N3C[C@@H]4[C@H](C3)[C@@H]4C(=O)O)nc(-c3ccccc3)n2)CC1` [Example 33, (1α,5α,6β)-3-{6-[2-(4-Butoxycarbonyl-piperazin-1-yl)-2-oxo-ethylcarbamoyl]-2-phenyl-pyrimidin-4-yl}-3-aza-bicyclo[3.1.0]hexane-6-carboxylic acid], for which the IC50 was 0.068 µM.
Take `CCOC(=O)N1CCN(C(=O)C(NC(=O)c2cc(N3CC4C(C3)C4C(=O)O)nc(-c3ccccc3)n2)C(C)C)CC1` [Example 13, (1α,5α,6β)-3-{6-[(S)-1-(4-Ethoxycarbonyl-piperazine-1-carbonyl)-2-methyl-propylcarbamoyl]-2-phenyl-pyrimidin-4-yl}-3-aza-bicyclo[3.1.0]hexane-6-carboxylic acid]: the IC50 was determined as 0.096 µM.
For the compound `CCCCOC(=O)N1CCN(C(=O)[C@@H](NC(=O)c2cc(N3C[C@@H]4[C@H](C3)[C@@H]4C(=O)O)nc(-c3ccccc3)n2)C(C)C)CC1` [Example 11, (1α,5α,6β)-3-{6-[(S)-1-(4-Butoxycarbonyl-piperazine-1-carbonyl)-2-methyl-propylcarbamoyl]-2-phenyl-pyrimidin-4-yl}-3-aza-bicyclo[3.1.0]hexane-6-carboxylic acid], the IC50 came out at 0.014 µM.
Regarding `CCCCOC(=O)N1CCN(C(=O)[C@H](CP(=O)(N[C@@H](C)C(=O)OCC)N[C@@H](C)C(=O)OCC)NC(=O)c2cc(N3C[C@@H]4[C@H](C3)[C@H]4C(=O)OCC)nc(-c3ccccc3)n2)CC1` [Example 53, N,N′-Bis-((S)-1-Ethoxycarbonylethyl)-(R)-2-[(4-[(1α,5α,6α)-6-ethoxycarbonyl-3-aza-bicyclo[3.1.0]hex-3-yl]-2-phenyl-pyrimidin-6-carbonyl)-amino]-3-oxo-3-(4-butoxy-carbonyl-piperazin-1-yl)-propyl-phosphonic acid diamide], the IC50 was 0.11 µM.
On to `CCCCOC(=O)N1CCN(C(=O)[C@@H](NC(=O)c2cc(N3C[C@@H]4[C@H](C3)[C@@H]4C(=O)O)nc(-c3ccc(F)cc3)n2)C(C)C)CC1` [Example 28, (1α,5α,6β)-3-[6-[(S)-1-(4-Butoxycarbonyl-piperazine-1-carbonyl)-2-methyl-propylcarbamoyl]-2-(4-fluoro-phenyl)-pyrimidin-4-yl]-3-aza-bicyclo[3.1.0]hexane-6-carboxylic acid], for which the IC50 is 0.007 µM.
As for `CCCCOC(=O)N1CCN(C(=O)[C@@H](NC(=O)c2cc(N3C[C@@H]4[C@H](C3)[C@@H]4C(=O)O)nc(-c3ccccc3)n2)C2CC2)CC1` [Example 41, (1α,5α,6β)-3-{6-[(S)-2-(4-Butoxycarbonyl-piperazin-1-yl)-1-cyclopropyl-2-oxo-ethylcarbamoyl]-2-phenyl-pyrimidin-4-yl}-3-aza-bicyclo[3.1.0]hexane-6-carboxylic acid], the 50% inhibitory concentration (IC50) came out at 0.022 µM.
On to `CCCCOC(=O)N1CCN(C(=O)[C@@H](NC(=O)c2cc(N3C[C@@H]4[C@H](C3)[C@H]4c3nnn[nH]3)nc(-c3ccccc3)n2)C(C)C)CC1` [Example 19], for which the IC50 came out at 0.012 µM.
On to `CCCCOC(=O)N1CCN(C(=O)C(NC(=O)c2cc(N3CC4C(C3)C4C(=O)O)nc(-c3ccccc3)n2)C(C)O)CC1` [Example 42, (1α,5α,6β)-3-{6-[(1S,2R)-1-(4-Butoxycarbonyl-piperazine-1-carbonyl)-2-hydroxy-propylcarbamoyl]-2-phenyl-pyrimidin-4-yl}-3-aza-bicyclo[3.1.0]hexane-6-carboxylic acid], for which the IC50 amounted to 0.05 µM.
As for `CCCCOC(=O)N1CCN(C(=O)[C@H](CC2CC2)NC(=O)c2cc(N3C[C@@H]4[C@H](C3)[C@@H]4C(=O)O)nc(-c3ccccc3)n2)CC1` [Example 40, (1α,5α,6β)-3-{6-[(S)-2-(4-Butoxycarbonyl-piperazin-1-yl)-1-cyclopropylmethyl-2-oxo-ethylcarbamoyl]-2-phenyl-pyrimidin-4-yl}-3-aza-bicyclo[3.1.0]hexane-6-carboxylic acid], the half-maximal inhibitory concentration (IC50) worked out at 0.143 µM.
The same measure for `CCCCOC(=O)N1CCN(C(=O)[C@H](CCC(=O)O)NC(=O)c2cc(N3C[C@@H]4[C@H](C3)[C@H]4C(=O)OCC)nc(-c3ccccc3)n2)CC1` [Example 3, (1α,5α,6α)-3-{6-[(S)-1-(4-Butoxycarbonyl-piperazine-1-carbonyl)-3-carboxy-propylcarbamoyl]-2-phenyl-pyrimidin-4-yl}-3-aza-bicyclo[3.1.0]hexane-6-carboxylic acid ethyl ester]: 0.0087 µM; for `CCCCOC(=O)N1CCN(C(=O)[C@H](CP(=O)(OCC)OCC)NC(=O)c2cc(N3C[C@@H]4[C@H](C3)[C@H]4C(=O)OCC)nc(-c3ccccc3)n2)CC1` [Example 50, (1α,5α,6α)-3-{6-[(R)-2-(4-Butoxycarbonyl-piperazin-1-yl)-1-(diethoxy-phosphorylmethyl)-2-oxo-ethylcarbamoyl]-2-phenyl-pyrimidin-4-yl}-3-aza-bicyclo[3.1.0]hexane-6-carboxylic acid ethyl ester]: 0.383 µM.
